{"source": "patent US20230220021A1", "about": "“CYCLIC PEPTIDE INHIBITORS OF PSD-95 AND USES THEREOF” (University of Copenhagen, priority 2020, published 2023)", "key": {"[1]": {"tested_on": "HeLa cells stably expressing HaloGFP", "source_text": "To assess the cellular permeability and delivery to the cytosol of the compounds as defined herein, the cellular chloroalkane penetration assay (CAPA) may be used (Peraro et al. 2018). This assay takes advantage of a modified haloalkane dehalogenase designed to covalently bind chloroalkane (CA) molecules. A HeLa cell line expressing a fusion protein comprising a HaloTag, a green fluorescent protein (GFP) and a mitochondria-targeting peptide is used to report cytosolic delivery. […] Cells expressing the HaloTag enzyme are incubated with CA-tagged peptides. When these CA-peptides penetrate the cell membrane and reach the cytosol, they will bind to and react with the HaloTag (pulse step). Following a washing step, the cells are incubated with a CA-tagged dye that quantitatively penetrates the cell membrane and reacts with remaining unreacted HaloTag sites (chase step). Flow cytometry is used to measure the fluorescence intensity of the cells and the measured fluorescence is inversely proportional to the amount of CA-peptides that reach the penetrated the cells and can thus be used to assess cytosolic delivery. The obtained data is commonly expressed as CP50 values, the concentration at which 50% cell penetration is observed. […]"}, "PSD-95-PDZ2 [2]": {"target": "T1, PSD-95-PDZ2 (Homo sapiens, UniProt P78352)", "T1 construct": "7xHis (N); made in house; host or cells: Escherichia coli B21 pLys (for the mutants, 'as previously described')", "experiment": "Isothermal titration calorimetry (ITC)", "type": "binding", "settings": "ITC, 25° C.", "quoted_text": "Isothermal titration calorimetry (ITC). The ITC assays were performed in NaPi 50 nM, 50 nM NaCl, pH 7.2 buffer filtered with a Corning® bottle-top vacuum filter system of a pore size of 0.22 μM, that was used to dissolve the peptides. Proteins were dialyzed against this buffer using Amicon® Ultra-15 centrifugal filter units, with a MWCO 3000 Da.\nThis assay was performed on an ITC200. The instrument differential power (DP) was set to 10 and the syringe rotating speed to 600 RPM. The assay setup consisted of introducing the protein inside the cell and the peptide (titrant) on the syringe. Calorimetry was performed at 25° C. Each analysis was performed in triplicates. Furthermore, several runs of peptide into buffer were performed in order to remove injection residual heat. Runs were analyzed with Origin 7.0 software (OriginLab)."}, "plasmin": {"target": "plasmin (Homo sapiens, UniProt P00747)", "sequence (P00747 581-810 limits assumed, species assumed)": "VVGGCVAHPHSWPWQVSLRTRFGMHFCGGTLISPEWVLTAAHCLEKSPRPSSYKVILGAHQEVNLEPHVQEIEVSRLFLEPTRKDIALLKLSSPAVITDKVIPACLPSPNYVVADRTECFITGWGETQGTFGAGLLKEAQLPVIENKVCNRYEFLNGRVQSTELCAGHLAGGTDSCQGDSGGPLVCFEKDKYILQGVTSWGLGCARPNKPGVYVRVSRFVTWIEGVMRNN", "sequence (P00747 97-580 partner limits assumed, species assumed)": "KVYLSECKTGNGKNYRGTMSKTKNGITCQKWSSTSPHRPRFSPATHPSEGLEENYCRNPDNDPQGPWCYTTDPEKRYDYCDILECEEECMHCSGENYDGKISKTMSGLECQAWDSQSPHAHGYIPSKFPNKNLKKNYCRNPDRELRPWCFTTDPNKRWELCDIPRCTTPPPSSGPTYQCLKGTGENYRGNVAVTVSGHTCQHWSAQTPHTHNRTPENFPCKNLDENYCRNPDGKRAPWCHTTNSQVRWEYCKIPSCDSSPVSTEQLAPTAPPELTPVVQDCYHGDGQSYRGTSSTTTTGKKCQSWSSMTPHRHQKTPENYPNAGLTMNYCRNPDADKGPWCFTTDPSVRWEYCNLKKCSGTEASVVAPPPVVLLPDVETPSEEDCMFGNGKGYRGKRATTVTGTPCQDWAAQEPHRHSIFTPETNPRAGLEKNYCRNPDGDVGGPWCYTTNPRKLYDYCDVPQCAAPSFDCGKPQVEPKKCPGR", "experiment": "In vitro plasmin stability", "type": "in vitro ADME", "settings": "plasmin (10 μg/mL) in phosphate buffered saline; 100 μM ligand, PBS with plasmin (10 μg/mL), 37° C., 0 to 360 minutes; mean n=3", "procedure": "The in vitro plasmin stability of peptides with SEQ ID NOs: 12, 68, 99 and 163 were determined by incubating 100 μM of ligand in phosphate buffered saline (PBS) supplemented with plasmin (10 μg/mL) at 37° C. for 0 to 360 minutes. At selected time points during the incubation, the ligands were extracted from 80 μL of assay matrix by treatment with 80 μL of 50% acetonitrile (ACN). The samples were filtered and analysed by UPLC to determine the amount of ligand remaining. LC-MS analysis was performed to confirm ligand integrity and identify cleavage sites."}, "PSD-95-PDZ2 [3]": {"target": "T1, PSD-95-PDZ2", "experiment": "Fluorescence polarization (FP) competition assay against cyclic nNOS TAMRA probe", "type": "binding", "settings": "for Ki: FP competition, cyclic nNOS TAMRA probe, mean of triplicates, N.B. = not binding, read-out: Ki", "quoted_text": "Fluorescence polarization (FP). FP assays were performed in a 384-well plate format. Fluorescence polarization was measured using a Safire 2 plate reader. The instrument Z-factor was optimized for each assay. The G-factor was calibrated to an initial milli polarization value of 20. The wavelength for the cyclic nNOS β-hairpin TAMRA probe was: ex: 530 nm and em: 580 nm. Every measurement was performed in NaPI 50 mM, 50 mM NaCl and 1% BSA at pH 7.2, 25° C. […] The curves were done in triplicates. Then, the polarization was fitted into a one-site binding model using Prism software 8.0 (GraphPad), from which the Kd can be measured. […] The mili polarization (mP) values were plotted as a function of peptide concentration and fitted to a sigmoidal dose-response curve using Prism software 8.0 (GraphPad). The Ki values were calculated according to Nikolovska-Coleska Z. et al.^40-41"}, "PSD-95-PDZ2 [4]": {"target": "T2, PSD-95-PDZ2 (Homo sapiens, UniProt P78352, V178C)", "T2 construct": "screened with the TAMRA labelled PSD-95-PDZ2-V178C domain; 7xHis (N); made in house", "experiment": "SPOT peptide array screening with TAMRA labelled PSD-95-PDZ2", "type": "binding", "settings": "SPOT array, TAMRA labelled PSD-95-PDZ2-V178C, normalized to WT", "in_short": "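First, arrays were blocked 1 h and scanned to record background. Next, 50 nM labelled PDZ2-V178C in PBS pH 7.2 with 0.5% BSA bound for 1 h protected from light. Finally, after washes, 532 nm fluorescence was measured and background-corrected.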"}, "PSD-95-PDZ2 H225A": {"target": "T3, PSD-95-PDZ2 H225A (Homo sapiens, UniProt P78352, H225A)", "T3 construct": "measured against recombinantly expressed PSD-95-PDZ2 Ala mutants in FP saturation experiments; 7xHis (N); made in house; host or cells: Escherichia coli B21 pLys", "experiment": "FP saturation assay against PSD-95-PDZ2 Ala mutant H225A", "type": "binding", "settings": "H225A mutation; TAMRA probes", "description": "(§1) Protein expression. The pRSET plasmids encoding the (7× His)-PSD-95-PDZ2 wild type and (7× His)-PSD-95-PDZ2-V178C sequences were obtained as described previously.^38 The DNA constructs encoding the PSD-95-PDZ2 mutants (K165A, K168A, F172A, F1721, S173A, N180A, T192A, K193A, H225A, E226A, V229A K233A) were produced using Phusion® site-directed mutagenesis kit on the pRSET plasmid of the wild type PSD-95-PDZ2 and with the primers listed in Table 1. The PSD-95-PDZ2 mutants were transformed and expressed as previously described,^38 in Escherichia coli B21 pLys cells at 37° C. and 0.5 mM isopropyl-D-thiogalactopyranoside (IPTG). […] Protein concentration was measured by NanoDrop 1000 and mass determination of proteins was analyzed using an Agilent 6410 triple quadrupole LC-MS with a Poroshell column, 300SB-C18 2.1×75 mm in a linear gradient of 5% to 60% B, using a binary solvent system [A: H2O/MeCN/TFA, 94.9/5/0.1 and B: H2O/MeCN/TFA, 5/94.9/0.1] with a flow of 0.75 mL min^−1. […] The proteins were analyzed using the following gradient: from 5% to 60% B for 4 min. and from 60 to 100% B from 4 to 4.5 min.\n(§2) Fluorescence polarization (FP). […] Fluorescence polarization was measured using a Safire 2 plate reader. […] Then, the polarization was fitted into a one-site binding model using Prism software 8.0 (GraphPad), from which the Kd can be measured. […]"}, "PSD-95-PDZ2 V229A": {"target": "T4, PSD-95-PDZ2 V229A (Homo sapiens, UniProt P78352, V229A)", "T4 construct": "measured against recombinantly expressed PSD-95-PDZ2 Ala mutants in FP saturation experiments; 7xHis (N); made in house; host or cells: Escherichia coli B21 pLys", "experiment": "FP saturation assay against PSD-95-PDZ2 Ala mutant V229A", "type": "binding", "settings": "V229A mutation; TAMRA probes", "description": "as §1, §2"}, "PSD-95-PDZ2 K165A": {"target": "T5, PSD-95-PDZ2 K165A (Homo sapiens, UniProt P78352, K165A)", "T5 construct": "measured against recombinantly expressed PSD-95-PDZ2 Ala mutants in FP saturation experiments; 7xHis (N); made in house; host or cells: Escherichia coli B21 pLys", "experiment": "FP saturation assay against PSD-95-PDZ2 Ala mutant K165A", "type": "binding", "settings": "K165 mutation; TAMRA probes", "description": "as §1, §2"}}, "note": "Where a SMILES comes first, the peptide text is derived from it. [ ]: non-standard residue; d: D form. The star is where a group is joined. 5TAMRA = CN(C)c1ccc2c(c1)Oc1cc(N(C)C)ccc1C21OC(=O)c2cc(C(=O)*)ccc21"}
{"compound": "cyclo-(THLETTFTGDGTP(K-CA)TIRVTQpGQ) [SEQ ID NO: 427]", "values": [{"measurement": "CP50", "setting": "[1]", "result": "31.1 ± 2.1", "unit": "µM"}]}
{"compound": "CC[C@H](C)[C@@H]1NC(=O)[C@H]([C@@H](C)O)NC(=O)[C@H](CCCCN)NC(=O)[C@@H]2CCCN2C(=O)[C@H]([C@@H](C)O)NC(=O)CNC(=O)[C@H](CC(=O)O)NC(=O)CNC(=O)[C@H]([C@@H](C)O)NC(=O)[C@H](Cc2ccccc2)NC(=O)[C@H]([C@@H](C)O)NC(=O)[C@H]([C@@H](C)O)NC(=O)[C@H](CCC(=O)O)NC(=O)[C@H](CC(C)C)NC(=O)[C@H](Cc2c[nH]cn2)NC(=O)[C@H]([C@@H](C)O)NC(=O)[C@H](CCC(N)=O)NC(=O)CNC(=O)[C@H]2CCCN2C(=O)[C@H](CCC(N)=O)NC(=O)[C@H]([C@@H](C)O)NC(=O)[C@H](C(C)C)NC(=O)[C@H](CCCNC(=N)N)NC1=O", "note": "[compound 12]", "values": [{"measurement": "ΔH", "setting": "PSD-95-PDZ2 [2]", "result": "-7.7418 ± 0.6837", "unit": "kcal/mol"}, {"measurement": "−ΔS*T", "setting": "PSD-95-PDZ2 [2]", "result": "0.3499 ± 0.3084", "unit": "kcal/mol"}, {"measurement": "half-life at 100 μM", "setting": "plasmin", "result": 1.18, "unit": "h"}]}
{"compound": "CC[C@H](C)[C@@H]1NC(=O)[C@H]([C@@H](C)O)NC(=O)[C@H](C)NC(=O)[C@@H]2CCCN2C(=O)[C@H]([C@@H](C)O)NC(=O)CNC(=O)[C@H](CC(=O)O)NC(=O)CNC(=O)[C@H]([C@@H](C)O)NC(=O)[C@H](Cc2ccccc2)NC(=O)[C@H]([C@@H](C)O)NC(=O)[C@H]([C@@H](C)O)NC(=O)[C@H](CCC(=O)O)NC(=O)[C@H](CC(C)C)NC(=O)[C@H](Cc2c[nH]cn2)NC(=O)[C@H]([C@@H](C)O)NC(=O)[C@H](CCC(N)=O)NC(=O)CNC(=O)[C@H]2CCCN2C(=O)[C@H](CCC(N)=O)NC(=O)[C@H]([C@@H](C)O)NC(=O)[C@H](C(C)C)NC(=O)[C@H](CCCNC(=N)N)NC1=O", "note": "[compound 68] (cyclo(THLETTFTGDGTPATIRVTQ[dP]GQ))", "values": [{"measurement": "Ki", "setting": "PSD-95-PDZ2 [3]", "result": 1.43, "unit": "µM"}, {"measurement": "Relative Ki (Ki mut/Ki WT)", "setting": "PSD-95-PDZ2 [3]; FP inhibition constant normalized to WT value", "result": 0.95}, {"measurement": "Normalized SPOT fluorescence (Mut/WT)", "setting": "PSD-95-PDZ2 [4]", "result": 0.39}, {"measurement": "half-life at 100 μM", "setting": "plasmin", "result": 6, "unit": "h"}]}
{"compound": "CC[C@H](C)[C@@H]1NC(=O)[C@H]([C@@H](C)O)NC(=O)[C@H](CCCCN)NC(=O)[C@@H]2CCCN2C(=O)[C@H]([C@@H](C)O)NC(=O)CNC(=O)[C@H](CC(=O)O)NC(=O)CNC(=O)[C@H]([C@@H](C)O)NC(=O)[C@H](Cc2ccccc2)NC(=O)[C@H]([C@@H](C)O)NC(=O)[C@H]([C@@H](C)O)NC(=O)[C@H](CCC(=O)O)NC(=O)[C@H](CC(C)C)NC(=O)[C@H](Cc2c[nH]cn2)NC(=O)[C@H]([C@@H](C)O)NC(=O)[C@H](CCC(N)=O)NC(=O)CNC(=O)[C@H]2CCCN2C(=O)[C@H](CCC(N)=O)NC(=O)[C@H]([C@@H](C)O)NC(=O)[C@H](C(C)C)NC(=O)[C@H](CCCNC(=N)N)N(C)C1=O", "note": "[compound 99]", "values": [{"measurement": "Ki", "setting": "PSD-95-PDZ2 [3]", "result": 0.99, "unit": "µM"}, {"measurement": "half-life at 100 μM", "setting": "plasmin", "result": 2.83, "unit": "h"}]}
{"compound": "CC[C@H](C)[C@H](NC(=O)[C@H](CO)NC(=O)[C@H](CO)NC(=O)[C@H](CC(C)C)NC(=O)[C@H](CCCCN)NC(=O)c1ccc2c(c1)C(=O)OC21c2ccc(N(C)C)cc2Oc2cc(N(C)C)ccc21)C(=O)N[C@@H](CCC(=O)O)C(=O)N[C@@H](CO)C(=O)N[C@@H](CC(=O)O)C(=O)N[C@H](C(=O)O)C(C)C", "note": "[C-terminal GluN2B TAM RA probe] (5TAMRA-KLSSIESDV-OH; N-terminus assumed)", "values": [{"measurement": "fold decrease in affinity (Kd mutant normalized to PSD-95-PDZ2 WT)", "setting": "PSD-95-PDZ2 H225A", "result": 5, "unit": "fold"}, {"measurement": "fold loss in affinity (Kd mutant normalized to PSD-95-PDZ2 WT)", "setting": "PSD-95-PDZ2 V229A", "result": 2, "unit": "fold"}, {"measurement": "fold loss in affinity (Kd mutant normalized to PSD-95-PDZ2 WT)", "setting": "PSD-95-PDZ2 K165A", "result": 5, "unit": "fold"}]}
